Like-named read-outs stand apart in the source and are kept apart here. Where a SMILES comes first, the peptide text is derived from it. Bridges are numbered along the chain shown (N, C = ends). [ ]: non-standard residue; d: D form. Nle = CCCC[C@H](N)C(=O)O; Abu = CC[C@H](N)C(=O)O Some results are limits rather than exact numbers.

We go through ten molecules from patent publication US8658604B2, “Template-fixed beta-hairpin peptidomimetics with protease inhibitory activity” (Polyphor Ltd, priority 2005, dated 2014).

Series [1] concerns the target T1, Elastase from human neutrophils (Homo sapiens, UniProt P08246).
T1 sequence (P08246 30-267): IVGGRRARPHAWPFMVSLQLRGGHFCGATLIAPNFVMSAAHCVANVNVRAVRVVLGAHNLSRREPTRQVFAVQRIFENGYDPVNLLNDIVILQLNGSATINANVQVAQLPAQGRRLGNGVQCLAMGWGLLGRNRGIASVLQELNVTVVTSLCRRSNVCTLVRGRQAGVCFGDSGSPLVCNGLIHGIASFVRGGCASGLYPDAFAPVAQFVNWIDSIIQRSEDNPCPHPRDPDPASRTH
Kind of series: Enzymatic assay, elastase.

The target of series [2] is Chymotrypsin, from human pancreas (Homo sapiens, UniProt P17538). Kind of series: Enzymatic assay, chymotrypsin.
The next series has as its system HELA cells (Acc57). Kind of series: Cytotoxicity assay (MTT reduction), HELA cells. The format is cell-based. The method, then:
The cytotoxicity of the peptides to HELA cells (Acc57) and COS-7 cells (CRL-1651) was determined using the MTT reduction assay [see ref. 2 and 3, below]. Briefly the method was as follows: HELA cells and COS-7 cells were seeded at 7.0×10^3 and, respectively, 4.5×10^3 cells per well and grown in 96-well microtiter plates for 24 hours at 37° C. at 5% CO2. At this point, time zero (Tz) was determined by MTT reduction (see below). The supernatant of the remaining wells was discarded, and fresh medium and the peptides in serial dilutions of 12.5, 25 and 50 μM were pipetted into the wells. Each peptide concentration was assayed in triplicate. Incubation of the cells was continued for 48 hours at 37° C. at 5% CO2. Wells were then washed once with phosphate buffered saline (PBS) and subsequently 100 μl MTT reagent (0.5 mg/ml in medium RPMI1640 and, respectively, DMEM) were added to the wells. This was incubated at 37° C. for 2 hours and subsequently the medium was aspirated and 100 μl isopropanol were added to each well. The absorbance at 595 nm of the solubilized product was measured (OD595peptide). For each concentration averages were calculated from triplicates. The percentage of growth was calculated as follows: (OD595peptide-OD595Tz-OD595Empty well)/(OD595Tz-OD595Empty well)×100% and was plotted for each peptide concentration.
The LC 50 values (Lethal Concentration, defined as the concentration that kills 50% of the cells) were determined for each peptide by using the trend line function of EXCEL (Microsoft Office 2000) for the concentrations (50, 25, 12.5 and 0 μM), the corresponding growth percentages and the value −50, (=TREND(C50:C0,%50:%0,−50)).
The GI 50 (Growth Inhibition) concentrations were calculated for each peptide by using a trend line function for the concentrations (50, 25, 12.5 and 0 μg/ml), the corresponding percentages and the value 50, (=TREND (C50:C0,%50:%0,50).

Series [3] deals with Tryptase, from human lung. Kind of series: Enzymatic assay, tryptase. The note with it: at 100 μM.

Chain of Chymotrypsin, from human pancreas (P17538 19-263): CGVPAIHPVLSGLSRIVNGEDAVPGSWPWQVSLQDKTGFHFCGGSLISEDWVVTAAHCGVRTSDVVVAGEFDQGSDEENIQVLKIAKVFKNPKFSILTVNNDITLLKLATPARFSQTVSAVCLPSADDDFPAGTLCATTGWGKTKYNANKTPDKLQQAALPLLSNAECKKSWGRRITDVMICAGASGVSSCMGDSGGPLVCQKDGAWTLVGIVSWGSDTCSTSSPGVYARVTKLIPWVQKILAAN

Consider “Ex. 87: β-hairpin peptidomimetic of Table 1, template DPro-Pro (cyclo([Nle]C[Abu]ASIPPQCY); disulfide 2-10; also: DPro-Pro template, linkage not given here)”, for which the IC50 (as a rule, the concentration that inhibits the measured activity by half) in series [1] (read-out: Elastase IC50) amounted to 0.037 µM; in series [2] (read-out: Chymotrypsin IC50), 107 µM. In the series on HELA cells (Acc57), this molecule came in with a Cytotoxicity LC50/GI50 Hela cells of 65 µM.
Consider `CCCC[C@@H]1NC(=O)[C@H](CO)NC(=O)[C@H]2CCCN2C(=O)[C@H](Cc2ccc(O)cc2)NC(=O)[C@@H]2CSSC[C@H](NC1=O)C(=O)N[C@@H]([C@@H](C)O)C(=O)N[C@@H](C)C(=O)N[C@@H](CO)C(=O)N[C@@H]([C@@H](C)CC)C(=O)N1CCC[C@H]1C(=O)N1CCC[C@H]1C(=O)N[C@@H](CCC(N)=O)C(=O)N2` [Ex. 124] (HELM PEPTIDE1{A.S.I.P.P.Q.C.Y.[dP].S.[Nle].C.T}$PEPTIDE1,PEPTIDE1,7:R3-12:R3|PEPTIDE1,PEPTIDE1,1:R1-13:R2$$$V2.0), for which, in series [1] (Elastase IC50), the midpoint of inhibition, the IC50, lay at 0.04 µM. In the series with HELA cells (Acc57) (Hela cells), this molecule showed a Cytotoxicity LC50/GI50 Hela cells of 40 µM.
In turn, `CC[C@H](C)[C@@H]1NC(=O)[C@@H]2CCCN2C(=O)[C@H]2CCCN2C(=O)[C@H](Cc2ccc(O)cc2)NC(=O)[C@@H]2CSSC[C@H](NC1=O)C(=O)N[C@@H]([C@@H](C)O)C(=O)N[C@@H](C)C(=O)N[C@@H](CO)C(=O)N[C@@H](CC(C)C)C(=O)N1CCC[C@H]1C(=O)N1CCC[C@H]1C(=O)N[C@@H](Cc1ccc(O)cc1)C(=O)N2` [Ex. 114] (HELM PEPTIDE1{I.C.T.A.S.L.P.P.Y.C.Y.[dP].P}$PEPTIDE1,PEPTIDE1,2:R3-10:R3|PEPTIDE1,PEPTIDE1,1:R1-13:R2$$$V2.0) came in with an IC50 in series [1] (Elastase IC50) of 0.047 µM. This molecule also showed a Cytotoxicity LC50/GI50 Hela cells in the series with HELA cells (Acc57) (Hela cells) of 34 µM.
For the molecule `CCCC[C@@H]1NC(=O)[C@@H]2CCCN2C(=O)[C@@H](CCCNC(=N)N)NC(=O)[C@H](Cc2ccc(O)cc2)NC(=O)[C@@H]2CSSC[C@H](NC1=O)C(=O)N[C@@H]([C@@H](C)O)C(=O)N[C@@H](C)C(=O)N[C@@H](CO)C(=O)N[C@@H]([C@@H](C)CC)C(=O)N1CCC[C@H]1C(=O)N1CCC[C@H]1C(=O)N[C@@H](CCC(N)=O)C(=O)N2` [Ex. 117] (HELM PEPTIDE1{A.S.I.P.P.Q.C.Y.[dR].P.[Nle].C.T}$PEPTIDE1,PEPTIDE1,7:R3-12:R3|PEPTIDE1,PEPTIDE1,1:R1-13:R2$$$V2.0), the IC50 in series [1] (Elastase IC50) is 0.033 µM. Moreover, in the series on HELA cells (Acc57) (Hela cells), the Cytotoxicity LC50/GI50 Hela cells amounted to 29 µM.
Regarding `CCCC[C@@H]1NC(=O)[C@@H]2CCCN2C(=O)[C@@H](CC(=O)O)NC(=O)[C@H](Cc2ccc(O)cc2)NC(=O)[C@@H]2CSSC[C@H](NC1=O)C(=O)N[C@@H]([C@@H](C)O)C(=O)N[C@@H](C)C(=O)N[C@@H](CO)C(=O)N[C@@H]([C@@H](C)CC)C(=O)N1CCC[C@H]1C(=O)N1CCC[C@H]1C(=O)N[C@@H](CCC(N)=O)C(=O)N2` [Ex. 115] (HELM PEPTIDE1{[Nle].C.T.A.S.I.P.P.Q.C.Y.[dD].P}$PEPTIDE1,PEPTIDE1,2:R3-10:R3|PEPTIDE1,PEPTIDE1,1:R1-13:R2$$$V2.0), the IC50 came out at 0.038 µM in series [1] (Elastase IC50) and 27.8 µM in series [2]. This molecule also gave a Cytotoxicity LC50/GI50 Hela cells with HELA cells (Acc57) (Hela cells) of 51 µM.
`CCCC[C@@H]1NC(=O)[C@@H]2CCCN2C(=O)[C@H]2CCCN2C(=O)[C@H](Cc2ccc(O)cc2)NC(=O)[C@@H]2CSSC[C@H](NC1=O)C(=O)N[C@@H]([C@@H](C)O)C(=O)N[C@@H](C)C(=O)N[C@@H](CO)C(=O)N[C@@H]([C@@H](C)CC)C(=O)N1CCC[C@H]1C(=O)N1CCC[C@H]1C(=O)N[C@@H](Cc1ccccc1)C(=O)N2` [Ex. 89] (HELM PEPTIDE1{[Nle].C.T.A.S.I.P.P.F.C.Y.[dP].P}$PEPTIDE1,PEPTIDE1,2:R3-10:R3|PEPTIDE1,PEPTIDE1,1:R1-13:R2$$$V2.0) showed an IC50 in series [1] (Elastase IC50) of 0.043 µM. Further, the Cytotoxicity LC50/GI50 Hela cells in the series on HELA cells (Acc57) (Hela cells) was found to be 51 µM.
For the molecule `CCCCCC[C@@H]1NC(=O)[C@H](CO)NC(=O)[C@H](C)NC(=O)[C@H]([C@@H](C)O)NC(=O)[C@@H]2CSSC[C@H](NC(=O)[C@H](CCC(N)=O)NC(=O)[C@@H]3CCCN3C(=O)[C@@H]3CCCN3C1=O)C(=O)N[C@@H](Cc1ccc(O)cc1)C(=O)N1CCC[C@@H]1C(=O)N1CCC[C@H]1C(=O)N[C@@H](CCCC)C(=O)N2` [Ex. 80] (HELM PEPTIDE1{[Nle].C.T.A.S.[CCCCCC[C@H](N[*:1])C(=O)[*:2]].P.P.Q.C.Y.[dP].P}$PEPTIDE1,PEPTIDE1,2:R3-10:R3|PEPTIDE1,PEPTIDE1,1:R1-13:R2$$$V2.0), the IC50 in series [1] (Elastase IC50) was 0.035 µM; in series [2], more than 20 µM. This molecule also gave a Cytotoxicity LC50/GI50 Hela cells in the series on HELA cells (Acc57) (Hela cells) of 12 µM.
As to `CCCC[C@@H]1NC(=O)[C@@H]2CCCN2C(=O)[C@H]2CCCN2C(=O)[C@H](Cc2ccc(O)cc2)NC(=O)[C@@H]2CSSC[C@H](NC1=O)C(=O)N[C@@H]([C@@H](C)O)C(=O)N[C@@H](C)C(=O)N[C@@H](CO)C(=O)N[C@@H](CCC(C)C)C(=O)N1CCC[C@H]1C(=O)N1CCC[C@H]1C(=O)N[C@@H](CCC(N)=O)C(=O)N2` [Ex. 83] (HELM PEPTIDE1{[Nle].C.T.A.S.[CC(C)CC[C@H](N[*:1])C(=O)[*:2]].P.P.Q.C.Y.[dP].P}$PEPTIDE1,PEPTIDE1,2:R3-10:R3|PEPTIDE1,PEPTIDE1,1:R1-13:R2$$$V2.0), the figures for the IC50 in series [1] (Elastase IC50) and in series [2] were 0.043 µM and 100 µM, respectively. For the same molecule, the Cytotoxicity LC50/GI50 Hela cells in the series on HELA cells (Acc57) (Hela cells) is 12 µM.
`CC[C@H](C)[C@@H]1NC(=O)[C@@H]2CCCN2C(=O)[C@@H]2CCCN2C(=O)[C@H](CC(=O)O)NC(=O)[C@H]([C@H](C)O)NC(=O)[C@H](CCCCN)NC(=O)[C@H]([C@@H](C)O)NC(=O)[C@@H]2CSSC[C@H](NC1=O)C(=O)N[C@@H](CO)C(=O)N1CCC[C@@H]1C(=O)N1CCC[C@H]1C(=O)N[C@@H](Cc1ccccc1)C(=O)N2` [Ex. 24] (HELM PEPTIDE1{F.C.T.K.[C[C@H](O)[C@H](N[*:1])C(=O)[*:2]].D.P.P.I.C.S.[dP].P}$PEPTIDE1,PEPTIDE1,2:R3-10:R3|PEPTIDE1,PEPTIDE1,1:R1-13:R2$$$V2.0): the “Tryptase at 100 μM %” value in series [3] was found to be 0%. In addition, in the series on HELA cells (Acc57) (Hela cells), the Cytotoxicity LC50/GI50 Hela cells came to 99 µM.
The molecule `CCCC[C@@H]1NC(=O)[C@@H]2CCCN2C(=O)[C@H]2CCCN2C(=O)[C@H](CO)NC(=O)[C@@H]2CSSC[C@H](NC1=O)C(=O)N[C@@H]([C@@H](C)O)C(=O)N[C@@H](C)C(=O)N[C@@H](CO)C(=O)N[C@@H]([C@@H](C)CC)C(=O)N1CCC[C@H]1C(=O)N1CCC[C@H]1C(=O)N[C@@H](CCC(N)=O)C(=O)N2` [Ex. 93] (HELM PEPTIDE1{[Nle].C.T.A.S.I.P.P.Q.C.S.[dP].P}$PEPTIDE1,PEPTIDE1,2:R3-10:R3|PEPTIDE1,PEPTIDE1,1:R1-13:R2$$$V2.0) registered an IC50 in series [1] (Elastase IC50) of 0.041 µM. The “Tryptase at 100 μM %” value in series [3] was 5.6%. This molecule also showed a Cytotoxicity LC50/GI50 Hela cells with HELA cells (Acc57) (Hela cells) of 100 µM.
